Measured values as given in paper PMC6941357, “An in vitro toolbox to accelerate anti-malarial drug discovery and development” (Malaria Journal, 2020).
Several values for one entry are separate records, joined by “and”; a condition that tells them apart may be missing. Identical values can stand only once. Like-named read-outs stand apart in the source and are kept apart here. Marks after values point to notes of the source that are not given here.

Legend:
[1] = Binding in DMEM with 10% FCS via ultracentrifugation; assay type: in vitro ADME, calf; conditions: bovine, pH 7.4
Procedure: (§1) Dulbecco’s Modified Eagle’s Medium (DMEM) containing GlutaMAX-I was purchased from Invitrogen (Thermo Fisher Scientific) and stored at 4 °C. Medium was prepared by adding heat inactivated foetal calf serum (FCS, final 10% v/v), penicillin (final 100 U/mL), streptomycin (final 100 µg/mL) D-glucose (final 4.0 mg/mL) and sodium pyruvate (final 0.1 mg/mL).
(§2) An ultracentrifugation method adapted from a previous publication was initially used to assess plasma protein binding and binding in the other media. […] Additional ultracentrifuge tubes containing spiked matrix were maintained at 37 °C, 5% or 10% CO2 or normal atmosphere conditions, with aliquots being taken within 0.5 h of the start and at the end of ultracentrifugation to serve as controls for the assessment of stability and to obtain a measure of the total concentration (Ctotal). Following ultracentrifugation, the pH was checked and an aliquot of protein-free supernate was taken from each ultracentrifuge tube for determination of the unbound concentration (Cunbound).
(§3) Total matrix and protein free samples were analysed using a matrix matching approach whereby each sample was mixed in a 1:1 ratio with the opposite blank medium (i.e. blank total matrix or blank protein free buffer). For example, plasma samples were mixed with blank pH 7.4 buffer whereas plasma supernatant samples were mixed with blank plasma. Each of the sample sets were then assayed against a common calibration curve prepared in a 1:1 mixture of total matrix and protein free pH 7.4 buffer. […] The standard deviation for fu was calculated using the propagation of errors approach as described previously. The potential for compound degradation was assessed by comparing the average value for Ctotal at the start and end of the experiment.

[2] = target: CYP2D6 (Homo sapiens, UniProt P10635); parameters: from tissue; host or cells: human liver microsomes; conditions: human liver microsomes, cited from earlier work
CYP2D6, sequence (P10635 whole entry): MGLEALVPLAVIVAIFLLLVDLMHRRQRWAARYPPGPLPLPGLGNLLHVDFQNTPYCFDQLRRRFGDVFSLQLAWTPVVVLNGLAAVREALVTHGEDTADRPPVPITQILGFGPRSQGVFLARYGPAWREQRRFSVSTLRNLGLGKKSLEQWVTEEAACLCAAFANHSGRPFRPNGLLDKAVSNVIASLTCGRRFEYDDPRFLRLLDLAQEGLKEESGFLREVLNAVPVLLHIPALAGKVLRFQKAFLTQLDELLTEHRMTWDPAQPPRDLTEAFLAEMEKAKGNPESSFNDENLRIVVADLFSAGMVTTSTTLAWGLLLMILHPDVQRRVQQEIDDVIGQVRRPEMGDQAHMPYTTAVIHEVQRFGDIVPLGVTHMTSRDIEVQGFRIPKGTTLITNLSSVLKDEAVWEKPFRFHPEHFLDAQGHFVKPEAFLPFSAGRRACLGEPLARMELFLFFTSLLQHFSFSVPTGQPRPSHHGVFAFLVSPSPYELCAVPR

[3] = target: CYP2C19 (Homo sapiens, UniProt P33261); parameters: from tissue; host or cells: human liver microsomes; conditions: human liver microsomes, cited from earlier work
CYP2C19, sequence (P33261 whole entry): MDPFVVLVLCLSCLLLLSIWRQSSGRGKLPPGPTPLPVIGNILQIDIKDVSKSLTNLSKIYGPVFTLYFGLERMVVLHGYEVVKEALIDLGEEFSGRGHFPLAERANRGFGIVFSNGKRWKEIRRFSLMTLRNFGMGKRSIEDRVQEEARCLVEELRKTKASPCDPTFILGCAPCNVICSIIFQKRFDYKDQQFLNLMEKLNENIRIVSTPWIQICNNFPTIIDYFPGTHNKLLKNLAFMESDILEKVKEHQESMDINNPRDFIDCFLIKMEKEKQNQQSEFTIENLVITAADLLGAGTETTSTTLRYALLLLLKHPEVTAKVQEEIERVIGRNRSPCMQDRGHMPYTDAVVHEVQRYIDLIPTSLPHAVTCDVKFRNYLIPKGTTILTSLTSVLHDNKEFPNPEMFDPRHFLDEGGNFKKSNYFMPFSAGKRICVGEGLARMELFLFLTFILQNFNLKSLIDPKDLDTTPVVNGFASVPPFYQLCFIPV

[4] = target: CYP3A4 (Homo sapiens, UniProt P08684); parameters: from tissue; host or cells: human liver microsomes; conditions: human liver microsomes, cited from earlier work
CYP3A4, sequence (P08684 whole entry): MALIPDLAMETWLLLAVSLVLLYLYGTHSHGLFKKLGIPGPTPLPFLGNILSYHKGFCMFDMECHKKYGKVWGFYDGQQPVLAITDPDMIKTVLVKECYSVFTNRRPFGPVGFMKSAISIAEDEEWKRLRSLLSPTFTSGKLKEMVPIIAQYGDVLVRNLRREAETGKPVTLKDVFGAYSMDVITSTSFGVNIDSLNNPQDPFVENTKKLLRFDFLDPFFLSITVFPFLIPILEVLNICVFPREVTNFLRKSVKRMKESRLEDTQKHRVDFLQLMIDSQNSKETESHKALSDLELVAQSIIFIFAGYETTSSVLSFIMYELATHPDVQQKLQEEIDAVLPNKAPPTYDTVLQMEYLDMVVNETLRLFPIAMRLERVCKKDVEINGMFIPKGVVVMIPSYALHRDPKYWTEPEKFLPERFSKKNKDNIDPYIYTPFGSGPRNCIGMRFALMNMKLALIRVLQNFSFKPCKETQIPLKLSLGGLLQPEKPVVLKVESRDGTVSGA

[5] = test system: human liver microsomes; conditions: human liver microsomes; cited from earlier work
[6] = target: T1, CYP1A2 (Homo sapiens, UniProt P05177); parameters: from tissue; host or cells: human liver microsomes; conditions: human liver microsomes, cited from earlier work
T1 sequence (P05177 1-516): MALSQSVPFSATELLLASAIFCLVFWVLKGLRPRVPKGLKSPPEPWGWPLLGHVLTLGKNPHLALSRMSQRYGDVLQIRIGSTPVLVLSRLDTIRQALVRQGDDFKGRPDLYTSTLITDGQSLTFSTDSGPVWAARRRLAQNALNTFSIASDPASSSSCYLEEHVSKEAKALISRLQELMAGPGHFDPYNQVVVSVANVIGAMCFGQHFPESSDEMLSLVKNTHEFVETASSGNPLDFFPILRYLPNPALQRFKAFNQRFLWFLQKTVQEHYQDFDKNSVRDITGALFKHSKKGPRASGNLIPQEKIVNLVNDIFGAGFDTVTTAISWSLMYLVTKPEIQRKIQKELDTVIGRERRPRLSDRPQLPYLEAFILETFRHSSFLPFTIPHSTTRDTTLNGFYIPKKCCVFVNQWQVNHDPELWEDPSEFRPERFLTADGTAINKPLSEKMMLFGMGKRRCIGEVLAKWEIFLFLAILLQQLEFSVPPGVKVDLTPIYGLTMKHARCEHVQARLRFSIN

[7] = test system: human plasma; test: Plasma protein binding via ultracentrifugation (UC); assay type: in vitro ADME; conditions: ultracentrifugation, neat plasma
Method in brief: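 Unbound fraction from ultracentrifugation of spiked pooled donor plasma, supernate pH checked and sampled for Cunbound. Ctotal and degradation taken from 37 °C control tubes at start and end; all samples mixed 1:1 with blank plasma or pH 7.4 buffer before analysis on shared calibration.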

[8] = target: CYP2C9 (Homo sapiens, UniProt P11712); parameters: from tissue; host or cells: human liver microsomes; conditions: human liver microsomes, cited from earlier work
CYP2C9, sequence (P11712 whole entry): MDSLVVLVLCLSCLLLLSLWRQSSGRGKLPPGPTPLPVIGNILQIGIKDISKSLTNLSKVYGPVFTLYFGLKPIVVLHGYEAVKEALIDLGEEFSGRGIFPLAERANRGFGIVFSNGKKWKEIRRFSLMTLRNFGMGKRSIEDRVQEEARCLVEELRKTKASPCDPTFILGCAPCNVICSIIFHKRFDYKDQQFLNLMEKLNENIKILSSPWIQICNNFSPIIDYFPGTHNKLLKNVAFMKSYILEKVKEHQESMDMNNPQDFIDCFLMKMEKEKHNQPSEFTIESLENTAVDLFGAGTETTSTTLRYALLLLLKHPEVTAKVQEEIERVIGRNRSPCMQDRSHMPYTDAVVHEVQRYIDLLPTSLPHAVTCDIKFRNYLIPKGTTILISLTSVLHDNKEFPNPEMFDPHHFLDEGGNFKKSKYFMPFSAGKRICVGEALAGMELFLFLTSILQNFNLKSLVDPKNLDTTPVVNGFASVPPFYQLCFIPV

[9] = test system: human liver microsomes; test: Binding to human liver microsomes via ultracentrifugation; assay type: in vitro ADME; conditions: 0.4 mg/mL protein
Method in brief: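 Unbound fraction by ultracentrifugation: Cunbound measured in protein-free supernate, Ctotal from spiked tubes held at 37 °C, sampled at start and end to check degradation. Matrix was 0.4 mg/mL human liver microsomal protein, 0.1 M phosphate pH 7.4; matrix-matched analysis against one calibration curve.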

[10] = human, cited from earlier work
[11] = test system: 10% FCS in DMEM; test: Binding in DMEM with 10% FCS via ultracentrifugation; assay type: in vitro ADME, calf
Procedure: as §1, §2, §3

[12] = cited from earlier work
[13] = parameters: method as in earlier work; conditions: octanol/pH 7.4 buffer; ref 77 (M5717), 78 (DSM421); cited from earlier work
[14] = apparent oral volume of distribution
[15] = ref 77 (M5717), 78 (DSM421), 79 (DSM265)

COc1ncnc(NS(=O)(=O)c2ccc(N)cc2)c1OC [Sulfadoxine]
fraction unbound at […], 1000 ng/mL ([1]; DMEM with 10% FCS): 0.86 ± 0.044

C[C@H]1c2cccc(O)c2C(=O)C2=C(O)[C@]3(O)C(=O)C(C(N)=O)=C(O)[C@@H](N(C)C)[C@@H]3[C@@H](O)[C@@H]21 [Doxycyclin]
fraction unbound at […], 1000 ng/mL ([1]; DMEM with 10% FCS): 0.44 ± 0.07

CS(=O)(=O)O.FC1CCN(CCOc2ccc(C3CCC4(CC3)OOC3(OO4)C4CC5CC(C4)CC3C5)cc2)CC1 (stereo not shown) [TDD-E209]
IC50 [2]: > 20 µM
CYP2D6 % inhibition at max conc ([2]; nmi = no measurable inhibition): nmi
IC50 [3]: > 20 µM
CYP2C19 % inhibition at max conc ([3]; nmi = no measurable inhibition): nmi
CYP3A4 (midaz) % inhibition at max conc ([4]; CYP3A4 (midaz)): 33%
IC50 ([4]; CYP3A4 (midaz), read-out: CYP3A4 (midaz) IC50): > 20 µM
CYP3A4 (test) % inhibition at max conc ([4]; CYP3A4 (test)): 43%
IC50 ([4]; CYP3A4 (test), read-out: CYP3A4 (test) IC50): > 20 µM
HLM CLint [5]: 25.5^e µL/min/mg
IC50 [6]: > 20 µM
CYP1A2 % inhibition at max conc ([6]; nmi = no measurable inhibition): nmi
Fraction unbound, human plasma [7]: 0.094 (0.011)
IC50 [8]: > 20 µM
CYP2C9 % inhibition at max conc ([8]; nmi = no measurable inhibition): nmi
Fraction unbound, HLM [9]: 0.0003 ± 0.000010

COc1cc(C)c2c(Oc3cccc(C(F)(F)F)c3)c(OC)cc(NC(C)CCCN)c2n1 (stereo not shown) [Tafenoquine]
fraction unbound at […], 1000 ng/mL ([1]; DMEM with 10% FCS): 0.038 ± 0.001
CL/F ([10]; apparent oral clearance): 3.0 L/h
V/F [10, 14]: 1600 L
Food effect [10]: yes
half-life [10]: 360 h
half-life ([10]; ref Table 10): ~ 15 days

CC1(C)c2nc(-c3ccc(F)cc3)c(Nc3ccc(F)cc3)n2CCN1C(=O)CN [KAF156]
fraction unbound at […], 1000 ng/mL ([1]; DMEM with 10% FCS): 0.477 ± 0.032

CCc1nc(N)nc(N)c1OCCCOc1ccccc1CCC(=O)O.Cl [P218]
Fraction unbound, human plasma [7]: 0.13 ± 0.013
Fraction unbound, 10% FCS in DMEM [11]: 0.684 ± 0.017
Fraction unbound, HLM [9]: 0.88 ± 0.041

C[C@H]1[C@H](OC(=O)CCC(=O)O)O[C@@H]2O[C@@]3(C)CC[C@H]4[C@H](C)CC[C@@H]1[C@@]24OO3 [Artesunate]
fraction unbound at […], 1000 ng/mL ([1]; DMEM with 10% FCS): 0.72 ± 0.026

CC(C)(N)CNC(=O)C[C@H]1CC[C@]2(CC1)OO[C@]1(O2)C2CC3CC(C2)CC1C3 [OZ277, Arterolane]
half-life ([10]; in vivo, ref Table 10): ~3 h
CL/F [10]: 184 L/h
Food effect [10]: no
V/F [10]: 929 L
half-life [10]: 3 h

COc1cc(NC(C)CCCN)c2ncccc2c1 (stereo not shown) [Primaquine]
fraction unbound at […], 1000 ng/mL [1]: 0.78 ± 0.025
half-life ([10]; in vivo, ref Table 10): ~ 7 h
CL/F ([10]; apparent oral clearance): 28 L/h
V/F [10, 14]: 277 L
Food effect [10]: no
half-life [10]: 7 h

CC1(C)N=C(N)N=C(N)N1c1ccc(Cl)cc1 [Cycloguanil]
fraction unbound at […], 1000 ng/mL ([1]; DMEM with 10% FCS): 0.94 ± 0.064

CCN(CC)CCCNc1ccnc2cc(Cl)ccc12.Cl.Cl [AQ-13]
Fraction unbound, human plasma [7]: 0.43 ± 0.022
Fraction unbound, HLM [9]: 0.66 ± 0.048

COc1cc2[nH]c(C)c(-c3ccc(Oc4ccc(OC(F)(F)F)cc4)cc3)c(=O)c2cc1Cl [ELQ300]
Fraction unbound, human plasma [7]: 0.011 (0.0020)
Fraction unbound, 10% FCS in DMEM [11]: 0.001 ± 0.001
Fraction unbound, HLM [9]: 0.002 ± 0.00010

CS(=O)(=O)c1ccc(-c2cnc(N)c(-c3ccc(C(F)(F)F)nc3)c2)cc1 [MMV048]
fraction unbound at […], 1000 ng/mL ([1]; DMEM with 10% FCS): 0.653 ± 0.06

COc1cc(N[C@H](C)CCCN)c2nccc(C)c2c1Oc1ccc(Cl)c(Cl)c1 [NPC1161B]
Fraction unbound, human plasma [7]: 0.046 (0.0090)
Fraction unbound, 10% FCS in DMEM [11]: 0.043 ± 0.004

CCc1nc(N)nc(N)c1-c1ccc(Cl)cc1 [Pyrimethamine]
fraction unbound at […], 1000 ng/mL ([1]; DMEM with 10% FCS): 0.48 ± 0.034

CC(C)(C)NCc1cc(C(C)(C)C)cc(-c2cnc(C(F)(F)F)c(F)c2)c1O [JPC3210]
Fraction unbound, human plasma [7]: 0.071
Fraction unbound, 10% FCS in DMEM [11]: 0.227 ± 0.012
Fraction unbound, HLM [9]: 0.029 ± 0.0030

Clc1ccc2c(N3CCN(CCCN4CCN(c5ccnc6cc(Cl)ccc56)CC4)CC3)ccnc2c1 [Piperaquine]
fraction unbound at […], 1000 ng/mL ([1]; DMEM with 10% FCS): 0.092 ± 0.003

CC(C)(C)NCc1cc(Nc2ccnc3cc(Cl)ccc23)c2c(c1O)CCCC2 [Naphthoquine]
Fraction unbound, human plasma [7]: 0.030 (0.0020)
Fraction unbound, HLM [9]: 0.21 ± 0.015

O=C(NCCN1CCCC1)c1cc(-c2ccc(CN3CCOCC3)cc2)nc2ccc(F)cc12 [M5717]
Solubility PBS7.4 (5–6 h) [12]: > 3000 µg/mL and > 6490 µM
Solubility FaSSGF (1 h) [12, 15]: > 3000 µg/mL and > 6490 µM
Solubility FaSSIF-V2 (5–6 h) [12, 15]: > 3000 µg/mL and > 6490 µM
Solubility FeSSIF-V2 (5–6 h) [12, 15]: > 3000 µg/mL and > 6486 µM
Measured Log D7.4 [13]: 2.50 ^g
Fraction unbound, human plasma [7]: 0.34 (0.021)
Fraction unbound, 10% FCS in DMEM [11]: 0.638 ± 0.065
Fraction unbound, HLM [9]: 0.50 ± 0.041

CN(C)C[c-]1cccc1CNc1ccnc2cc(Cl)ccc12.[Fe+2].c1cc[cH-]c1 (stereo not shown) [Ferroquine]
Fraction unbound, human plasma [7]: 0.070 (0.0080)
Fraction unbound, 10% FCS in DMEM [11]: 0.364 ± 0.026
Fraction unbound, HLM [9]: 0.27 ± 0.032

C[C@H]1[C@@H](O)O[C@@H]2O[C@@]3(C)CC[C@H]4[C@H](C)CC[C@@H]1[C@@]24OO3 [Dihydroartemisinin]
half-life ([10]; in vivo, ref Table 10): approximately 1 h
CL/F [10]: 272 L/h
Food effect [10]: no
V/F [10]: 385 L
